Results reported in patent US20200054539A1, “METHOD FOR REMOVING KERATOTIC PLUGS” (KAO CORPORATION, priority 2017, published 2020).

How the values were obtained:
[1] = Detergency against keratotic plugs: penetration of the sample into the keratotic plugs; design: species or system human; conditions: keratotic plugs kept in contact with a sample for 1 minute; Table 1 samples
Method: (§1) 1. Evaluation of Detergency Against Keratotic Plugs During Cleansing
(§2) Keratotic plugs in the nasal region were removed with “Biore Nose Pack (manufactured by Kao Corporation)”, the resulting keratotic plugs on the pack were gently taken out with tweezers.
(§3) The resulting keratotic plugs were placed on a slide glass and were covered with a cover glass, and 0.05 mL of a sample was dropwise added to an edge of the cover glass. Consequently, the sample enters into the gap between the slide glass and the cover glass by capillary phenomenon and is brought into contact with the keratotic plugs. The contact of the keratotic plugs with the sample was recorded with a digital microscope (VHX-5000, manufactured by Keyence Corporation, magnification: x150), and the penetration of the sample into the keratotic plugs and the collapse state of the keratotic plugs were evaluated after one minute from the contact of the keratotic plugs with the sample. The results of each evaluation are shown in the columns “Detergency against keratotic plugs (penetration)” and “Detergency against keratotic plugs (during cleansing)” in Tables. The measurements were performed at 25° C.
(§4) The penetration was relatively evaluated by 11 criteria from the state 1 “the sample hardly penetrated into the keratotic plug” to the state 11 “the sample penetrated to the center of the keratotic plug”. The collapsibility by the detergency against keratotic plugs was relatively evaluated by 11 criteria from the state 1 “almost no change is observed in the external appearance of the keratotic plug” to the state 11 “peeling or separation is observed in the area from the surface layer to the central portion of the keratotic plug (the initial appearance of the keratotic plug is not retained)”.

[2] = Detergency against keratotic plugs after washing with water; design: species or system human; conditions: keratotic plugs kept in contact with water for 1 minute after the sample
Text: as §4
2. Evaluation of Detergency Against Keratotic Plugs after Washing with Water
After one minute from the contact of the keratotic plugs with the sample, KimWipes (registered trademark) was brought into contact with an edge of the cover glass to remove the sample under the cover glass. Subsequently, 0.05 mL of water was dropwise added to an edge of the cover glass. The sample dropwise added with water was recorded with the digital microscope, and the collapse state of the keratotic plugs was evaluated after one minute from the contact of the keratotic plugs with water according to the criteria for evaluating collapsibility of the keratotic plugs. The results of the evaluation are shown in the column “Detergency against keratotic plugs (after washing with water)” in Table. The measurements were performed at 25° C.

[3] = Detergency against keratotic plugs during cleansing: collapse state of the keratotic plugs; design: species or system human; conditions: keratotic plugs kept in contact with a sample for 1 minute; Table 1 samples
Method: as §1, §2, §3, §4

[4] = system: insoluble protein (zein protein); assay: Evaluation of effect of suppressing protein aggregation; conditions: Table 1 sample
Method: <<Evaluation of Effect of Suppressing Protein Aggregation>>
Thirty milliliters of a sample and 0.06 g of an insoluble protein (zein protein) were placed in a 35-mL standard glass bottle, and the concentration of the insoluble protein was adjusted to 0.2 mass % (test sample). Separately, a standard sample was prepared by using water instead of the sample and adjusting the concentration of the insoluble protein to 0.2 mass %. Subsequently, the standard glass bottles were sufficiently shaken and stirred up and down (shake width: 15 cm, 20 times at a rate of 5 times for 3 seconds) in a thermostatic chamber of 25° C. and were left to stand per 3 minutes. The precipitation state of the insoluble protein was then visually verified, and the ratio of the amount of the precipitated standard sample to the amount of the precipitated test sample (the height of the precipitate in each standard glass bottle was measured as the precipitation amount), (precipitation amount of standard sample)/(precipitation amount of test sample), was calculated. A higher ratio indicates a higher effect of suppressing protein aggregation.

| Molecule | penetration into keratotic plugs (in words) [1] | collapse of the keratotic plugs on contact with water (in words) [2] | collapse of the keratotic plugs in contact with the sample (in words) [3] | action on proteins (in words) [4] |
| --- | --- | --- | --- | --- |
| N=C(N)NCCC[C@H](N)C(=O)O [Arginine] | penetrated into keratotic plugs | further swelled to cause a phenomenon of accelerating the collapse of the keratotic plugs |  |  |
| O=P([O-])([O-])O.[Na+].[Na+] [disodium hydrogen phosphate] | hardly penetrated into keratotic plugs | the collapse of the keratotic plugs did not progress | the collapse of the keratotic plugs did not progress |  |
| O=C([O-])O.[Na+] [sodium hydrogen carbonate] | hardly penetrated into keratotic plugs | the collapse of the keratotic plugs did not progress | the collapse of the keratotic plugs did not progress |  |
| O=P([O-])([O-])[O-].[Na+].[Na+].[Na+] [trisodium phosphate] | hardly penetrated into keratotic plugs | the collapse of the keratotic plugs did not progress | the collapse of the keratotic plugs did not progress |  |
| sodium polyoxyethylene (2) lauryl ether sulfate [POE (2) sodium lauryl sulfate] | hardly penetrated into the keratotic plugs |  | the collapse of the keratotic plugs did not progress | the action on proteins was strong to dissolve the proteins |
